# Results published in patent EP1003508B1, “ANTIMUTAGENIC AGENTS” (The GRASSETTI Family Trust, priority 1997, dated 1999).
# Read-outs that look alike come from different tables or passages of the source.
# Tests used:
# [1] = test system: Salmonella Typhimurium bacteria T-100; experiment: microbe, parasite or virus in culture; format: cell-based; details: for Number of Colonies Per Plate With Inhibitor: inhibitor 0.3 mg/plate added one hour before carcinogen, average of 3; for inhibition at 0.3 mg/plate: Salmonella enterica, TYPHIMURIUM
# [2] = Observed toxicity / tolerability; details: can be taken in doses of at least approximately 0.1 gram per day for indefinite periods
# Description: It can be taken in doses of at least approximately 0.1 gram per day for indefinite periods. This fills the requirements for a non-toxic, low-cost chemopreventive agent, which could be administered orally.
# [3] = biological target: T1, poly(ADP-ribose) polymerase (ADPRP) (Sus scrofa, UniProt I3LDH3); experiment: Inhibition of ADPRP enzyme activity; format: biochemical, pig
# T1 construct: ADPRP was prepared from pig thymus using the method of Khan and Shall; from tissue; host or cells: pig thymus
# Procedure: ADPRP was prepared from pig thymus using the method of Khan and Shall (Biochem. Soc. Transactions 4:778 (1976)) with various modifications. Enzyme activity was approximately linear up to 15-20 minutes with NAD substrate concentration of 25 µM. Typical maximum enzyme activity was around 0.003 nmol product formed/minute in the assay (i.e. approximately 0.1% of substrate utilized). KM was approximately 25 µM.
# Using a standard assay mix containing 2mM dithiothreitol (DTT) and […] crude enzyme/ml incubation, three experiments were performed with 6,6'-dithiodinicotinic acid added at concentrations varying from 5 µg/ml to 600 µg/ml (i.e. 1/60th molar equivalent of DTT to 2 molar equivalents). […] INHIBITION % OF CONTROLS
# These are values for individual incubations which were stopped at either 7.5, 15, or 20 minutes.
# [4] = test system: metastases; details: mice; Grassetti 1970, Nature 228:282; cited from earlier work
# [5] = 2mM DTT, individual incubation, read-out: Percent Inhibition at: 7.5 min.
# [6] = 2mM DTT, individual incubation, read-out: Percent Inhibition at: 15 min.
# T1 sequence (I3LDH3 1-1017): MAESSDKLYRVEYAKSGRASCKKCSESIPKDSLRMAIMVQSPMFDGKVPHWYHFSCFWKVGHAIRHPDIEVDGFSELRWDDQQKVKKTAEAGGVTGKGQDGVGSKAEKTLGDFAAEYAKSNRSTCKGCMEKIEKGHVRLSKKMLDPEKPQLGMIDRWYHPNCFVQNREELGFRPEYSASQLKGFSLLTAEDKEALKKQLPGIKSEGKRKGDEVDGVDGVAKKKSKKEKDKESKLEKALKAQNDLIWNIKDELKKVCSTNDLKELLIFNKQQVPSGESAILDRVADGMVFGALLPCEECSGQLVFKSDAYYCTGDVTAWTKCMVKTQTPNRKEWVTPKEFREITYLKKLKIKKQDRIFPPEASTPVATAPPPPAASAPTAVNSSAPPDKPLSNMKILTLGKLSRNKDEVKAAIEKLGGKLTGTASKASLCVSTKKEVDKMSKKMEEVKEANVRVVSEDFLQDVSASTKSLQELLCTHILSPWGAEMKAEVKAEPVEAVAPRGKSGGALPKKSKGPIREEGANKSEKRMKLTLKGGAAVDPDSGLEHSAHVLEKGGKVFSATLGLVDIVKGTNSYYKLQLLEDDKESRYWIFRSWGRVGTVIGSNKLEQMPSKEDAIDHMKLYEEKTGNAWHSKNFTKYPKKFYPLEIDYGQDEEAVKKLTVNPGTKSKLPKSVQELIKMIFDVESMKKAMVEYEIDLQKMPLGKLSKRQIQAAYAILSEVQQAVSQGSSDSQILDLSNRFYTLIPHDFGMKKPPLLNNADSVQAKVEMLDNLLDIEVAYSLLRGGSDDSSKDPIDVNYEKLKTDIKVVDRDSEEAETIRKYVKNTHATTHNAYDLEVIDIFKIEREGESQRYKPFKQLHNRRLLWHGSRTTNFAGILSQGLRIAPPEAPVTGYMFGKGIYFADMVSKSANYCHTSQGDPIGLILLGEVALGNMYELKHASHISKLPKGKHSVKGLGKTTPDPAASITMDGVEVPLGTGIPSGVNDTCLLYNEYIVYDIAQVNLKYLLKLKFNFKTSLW
smiles,measurement,setting,value
"O=C(O)c1ccc(SSc2ccc(C(=O)O)cn2)nc1 [6,6'-dithiodinicotinic acid]",Number of Colonies Per Plate With Inhibitor,[1]; 2-Aflatoxin 0 (control) µg/plate,104
same,Number of Colonies Per Plate With Inhibitor,[1]; 2-Aflatoxin 20 µg/plate,188
same,Number of Colonies Per Plate With Inhibitor,[1]; 2-Aflatoxin 50 µg/plate,358
same,Number of Colonies Per Plate With Inhibitor,[1]; 2-Aflatoxin 100 µg/plate,471
same,Number of Colonies Per Plate With Inhibitor,[1]; 2-Aminofluorene 0 (control) µg/plate,141
same,Number of Colonies Per Plate With Inhibitor,[1]; 2-Aminofluorene 5.0 µg/plate,705
same,Number of Colonies Per Plate With Inhibitor,[1]; 2-Aminofluorene 15.0 µg/plate,655
same,Number of Colonies Per Plate With Inhibitor,[1]; 2-Aminofluorene 25.0 µg/plate,791
same,Number of Colonies Per Plate With Inhibitor,[1]; Benzo-[a]-pyrene 0 (control) µg/plate,111
same,Number of Colonies Per Plate With Inhibitor,[1]; Benzo-[a]-pyrene 2.5 µg/plate,339
same,Number of Colonies Per Plate With Inhibitor,[1]; Benzo-[a]-pyrene 5.0 µg/plate,446
same,Number of Colonies Per Plate With Inhibitor,[1]; Benzo-[a]-pyrene 10.0 µg/plate,488
same,inhibition at 0.3 mg/plate,"[1]; 2-Aminofluorene 5.0 µg/plate, inhibitor 0.3 mg/plate, read-out: Decrease (%)",10%
same,inhibition at 0.3 mg/plate,"[1]; Benzo-[a]-pyrene 2.5 µg/plate, inhibitor 0.3 mg/plate, read-out: Decrease (%)",74%
same,inhibition at 0.3 mg/plate,"[1]; Benzo-[a]-pyrene 5.0 µg/plate, inhibitor 0.3 mg/plate, read-out: Decrease (%)",62%
same,inhibition at 0.3 mg/plate,"[1]; Benzo-[a]-pyrene 10.0 µg/plate, inhibitor 0.3 mg/plate, read-out: Decrease (%)",58%
same,inhibition at 0.3 mg/plate,"[1]; read-out: Decrease (%), 2-Aflatoxin 0 (control) µg/plate, inhibitor 0.3 mg/plate",0%
same,inhibition at 0.3 mg/plate,"[1]; read-out: Decrease (%), 2-Aflatoxin 20 µg/plate, inhibitor 0.3 mg/plate",63%
same,inhibition at 0.3 mg/plate,"[1]; read-out: Decrease (%), 2-Aflatoxin 50 µg/plate, inhibitor 0.3 mg/plate",68%
same,inhibition at 0.3 mg/plate,"[1]; read-out: Decrease (%), 2-Aflatoxin 100 µg/plate, inhibitor 0.3 mg/plate",72%
same,inhibition at 0.3 mg/plate,"[1]; read-out: Decrease (%), 2-Aminofluorene 0 (control) µg/plate, inhibitor 0.3 mg/plate",0%
same,inhibition at 0.3 mg/plate,"[1]; read-out: Decrease (%), 2-Aminofluorene 15.0 µg/plate, inhibitor 0.3 mg/plate",72%
same,inhibition at 0.3 mg/plate,"[1]; read-out: Decrease (%), 2-Aminofluorene 25.0 µg/plate, inhibitor 0.3 mg/plate",63%
same,inhibition at 0.3 mg/plate,"[1]; read-out: Decrease (%), Benzo-[a]-pyrene 0 (control) µg/plate, inhibitor 0.3 mg/plate",0%
same,inhibition at 0.3 mg/plate,"[1]; read-out: number of mutants decreased, present in the culture prior to addition of carcinogen (benzo-[a]-pyrene, 2-aflatoxin, or 2-aminofluorene)",~70%
same,mutagenic effect of carcinogenic chemicals,"[1]; benzo-[a]-pyrene, 2-aflatoxin, and 2-aminofluorene",greatly diminished
same,toxicity,[2],not a toxic compound
same,inhibition at 5 µg/mL,[3]; [5],0%
same,inhibition at 5 µg/mL,[3]; [6],14%
same,inhibition at 25 µg/mL,[3]; [5],0%
same,inhibition at 25 µg/mL,[3]; [6],0%
same,inhibition at 50 µg/mL,[3]; [5],37%
same,inhibition at 50 µg/mL,[3]; [6],38%
same,inhibition at 100 µg/mL,[3]; [5],68%
same,inhibition at 100 µg/mL,[3]; [6],54%
same,inhibition at 150 µg/mL,"[3]; 150 µg/ml, 2mM DTT, individual incubation, read-out: Percent Inhibition at: 7.5 min.",88%
same,inhibition at 150 µg/mL,"[3]; 150 µg/ml, 2mM DTT, individual incubation, read-out: Percent Inhibition at: 15 min.",70%
same,inhibition at 150 µg/mL,"[3]; 150 µg/ml, 2mM DTT, individual incubation, read-out: Percent Inhibition at: 20 min.",90%
same,extent of conversion of substrate to bound product after addition of excess DTT,"[3]; 150 µg/ml, excess DTT added to incubation",did not increase
same,inhibition at 300 µg/mL,"[3]; 300 µg/ml, 2mM DTT, individual incubation, read-out: Percent Inhibition at: 20 min.",93%
same,inhibition at 600 µg/mL,"[3]; 600 µg/ml, 2mM DTT, individual incubation, read-out: Percent Inhibition at: 20 min.",83%
same,inhibition of ADPRP,"[3]; at 50 µg/ml, 2mM DTT",Significant and specific inhibition
same,inhibition of ADPRP,[3]; at 150 µg/ml and above (0.5 molar equivalents of DTT and above),almost complete inhibition
same,inhibition of ADPRP,[3]; at 5 and 25 µg/ml,No inhibition
same,prevention of metastases,[4],known to prevent metastases in mice
